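Dose response: 5 concentrations. Exposure: 48 h. Format: 96-well plates. Endpoint: linear interpolation; highest concentration if not reached. GI50 = concentration required for 50% inhibition of growth.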 Calls of active or inactive are those of the source. Rule as the data show it: active = GI50 up to about 1.1 µM and inactive = higher.
What was measured:
Assay in all cases: DTP human tumour cell line panel, 48 h
A549 = test system: A549
HCT-116 = test system: HCT-116
OVCAR-8 = test system: OVCAR-8
NCI-H226 = test system: NCI-H226
HCT-15 = test system: HCT-15
OVCAR-3 = test system: OVCAR-3
CAKI-1 = test system: CAKI-1
CCRF-CEM = test system: CCRF-CEM
SF-539 = test system: SF-539
SF-268 = test system: SF-268
M14 = test system: M14
MCF7 = test system: MCF7
NCI-H522 = test system: NCI-H522
RXF 393 = test system: RXF 393
SNB-19 = test system: SNB-19
SK-MEL-5 = test system: SK-MEL-5
Hs-578T = test system: Hs-578T
ACHN = test system: ACHN
SW-620 = test system: SW-620
TK-10 = test system: TK-10
RPMI-8226 = test system: RPMI-8226
LOX IMVI = test system: LOX IMVI
KM12 = test system: KM12
SNB-75 = test system: SNB-75
COLO 205 = test system: COLO 205
HT-29 = test system: HT-29
T47D = test system: T47D
U-251 = test system: U-251
DU-145 = test system: DU-145
MDA-MB-435 = test system: MDA-MB-435
EKVX = test system: EKVX
HOP-92 = test system: HOP-92
Malme-3M = test system: Malme-3M
MDA-N = test system: MDA-N
NCI-H23 = test system: NCI-H23
HCC 2998 = test system: HCC 2998
A498 = test system: A498
SF-295 = test system: SF-295
PC-3 = test system: PC-3
UO-31 = test system: UO-31
MOLT-4 = test system: MOLT-4
HOP-62 = test system: HOP-62
UACC-62 = test system: UACC-62
MDA-MB-231 = test system: MDA-MB-231
NCI/ADR-RES = test system: NCI/ADR-RES
BT-549 = test system: BT-549
OVCAR-4 = test system: OVCAR-4
786-0 = test system: 786-0
SK-MEL-2 = test system: SK-MEL-2
UACC-257 = test system: UACC-257
SN12C = test system: SN12C
SK-OV-3 = test system: SK-OV-3
SK-MEL-28 = test system: SK-MEL-28
NCI-H460 = test system: NCI-H460
HL-60 = test system: HL-60
OVCAR-5 = test system: OVCAR-5
SR = test system: SR
IGROV-1 = test system: IGROV-1
K562 = test system: K562

CCSc1cc(=O)n(C)c(=O)n1C
GI50 (A549): > 100 µM (inactive) | GI50 (HCT-116): > 100 µM (inactive) | GI50 (OVCAR-8): > 100 µM (inactive) | GI50 (NCI-H226): > 100 µM (inactive) | GI50 (HCT-15): > 100 µM | GI50 (OVCAR-3): > 100 µM (inactive) | GI50 (CAKI-1): > 100 µM (inactive) | GI50 (CCRF-CEM): > 100 µM (inactive) | GI50 (SF-539): > 100 µM (inactive) | GI50 (SF-268): > 100 µM (inactive) | GI50 (M14): > 100 µM (inactive) | GI50 (MCF7): > 100 µM (inactive) | GI50 (NCI-H522): > 100 µM (inactive) | GI50 (RXF 393): > 100 µM (inactive) | GI50 (SNB-19): > 100 µM (inactive) | GI50 (SK-MEL-5): > 100 µM (inactive) | GI50 (Hs-578T): > 100 µM (inactive) | GI50 (ACHN): > 100 µM (inactive) | GI50 (SW-620): > 100 µM (inactive) | GI50 (TK-10): > 100 µM (inactive) | GI50 (RPMI-8226): > 100 µM (inactive) | GI50 (LOX IMVI): > 100 µM (inactive) | GI50 (KM12): > 100 µM (inactive) | GI50 (SNB-75): 42.7 µM (inactive) | GI50 (COLO 205): > 100 µM (inactive) | GI50 (HT-29): > 100 µM (inactive) | GI50 (T47D): > 100 µM (inactive) | GI50 (U-251): > 100 µM (inactive) | GI50 (DU-145): > 100 µM (inactive) | GI50 (MDA-MB-435): > 100 µM (inactive) | GI50 (EKVX): > 100 µM (inactive) | GI50 (HOP-92): > 100 µM (inactive) | GI50 (Malme-3M): > 100 µM (inactive) | GI50 (MDA-N): > 100 µM (inactive) | GI50 (NCI-H23): > 100 µM (inactive) | GI50 (HCC 2998): > 100 µM (inactive) | GI50 (A498): > 100 µM (inactive) | GI50 (SF-295): > 100 µM (inactive) | GI50 (PC-3): > 100 µM (inactive) | GI50 (UO-31): > 100 µM (inactive) | GI50 (MOLT-4): > 100 µM (inactive) | GI50 (HOP-62): > 100 µM (inactive) | GI50 (UACC-62): > 100 µM (inactive) | GI50 (MDA-MB-231): > 100 µM (inactive) | GI50 (NCI/ADR-RES): > 100 µM (inactive) | GI50 (BT-549): > 100 µM (inactive) | GI50 (OVCAR-4): > 100 µM (inactive) | GI50 (786-0): > 100 µM (inactive) | GI50 (SK-MEL-2): > 100 µM (inactive) | GI50 (UACC-257): > 100 µM (inactive) | GI50 (SN12C): > 100 µM (inactive) | GI50 (SK-OV-3): > 100 µM (inactive) | GI50 (SK-MEL-28): > 100 µM (inactive) | GI50 (NCI-H460): > 100 µM (inactive) | GI50 (HL-60): > 100 µM (inactive) | GI50 (OVCAR-5): > 100 µM (inactive)

CCOC(=O)/C(C#N)=N\Nc1ccc(-n2c(C)nc3ccccc3c2=O)cc1
GI50 (A549): 73.6 µM (inactive) | GI50 (SR): 39.4 µM (inactive) | GI50 (HCT-116): 59.6 µM (inactive) | GI50 (OVCAR-8): 29.6 µM (inactive) | GI50 (NCI-H226): 24.5 µM (inactive) | GI50 (HCT-15): 62.1 µM | GI50 (OVCAR-3): 32.7 µM (inactive) | GI50 (CAKI-1): > 100 µM (inactive) | GI50 (CCRF-CEM): > 100 µM (inactive) | GI50 (SF-539): > 100 µM (inactive) | GI50 (SF-268): > 100 µM (inactive) | GI50 (M14): 69.8 µM (inactive) | GI50 (MCF7): 84.3 µM (inactive) | GI50 (SNB-19): > 100 µM (inactive) | GI50 (SK-MEL-5): 16.5 µM (inactive) | GI50 (Hs-578T): 59 µM (inactive) | GI50 (ACHN): > 100 µM (inactive) | GI50 (SW-620): 75.9 µM (inactive) | GI50 (TK-10): > 100 µM (inactive) | GI50 (RPMI-8226): 30.9 µM (inactive) | GI50 (LOX IMVI): 66.2 µM (inactive) | GI50 (KM12): 30.2 µM (inactive) | GI50 (SNB-75): 63.5 µM (inactive) | GI50 (COLO 205): 78.3 µM (inactive) | GI50 (HT-29): > 100 µM (inactive) | GI50 (T47D): 34.8 µM (inactive) | GI50 (U-251): > 100 µM (inactive) | GI50 (DU-145): 77.6 µM (inactive) | GI50 (MDA-MB-435): 47.6 µM (inactive) | GI50 (EKVX): 53.2 µM (inactive) | GI50 (HOP-92): > 100 µM (inactive) | GI50 (MDA-N): 47.3 µM (inactive) | GI50 (NCI-H23): > 100 µM (inactive) | GI50 (A498): > 100 µM (inactive) | GI50 (SF-295): 56.9 µM (inactive) | GI50 (PC-3): 75.3 µM (inactive) | GI50 (UO-31): 50.4 µM (inactive) | GI50 (IGROV-1): 51.2 µM (inactive) | GI50 (K562): 49.1 µM (inactive) | GI50 (MOLT-4): 23.7 µM (inactive) | GI50 (HOP-62): > 100 µM (inactive) | GI50 (UACC-62): 70.3 µM (inactive) | GI50 (MDA-MB-231): > 100 µM (inactive) | GI50 (NCI/ADR-RES): 18.9 µM (inactive) | GI50 (BT-549): 73.6 µM (inactive) | GI50 (786-0): > 100 µM (inactive) | GI50 (SK-MEL-2): > 100 µM (inactive) | GI50 (UACC-257): 61.4 µM (inactive) | GI50 (SN12C): > 100 µM (inactive) | GI50 (SK-OV-3): > 100 µM (inactive) | GI50 (SK-MEL-28): 33.2 µM (inactive) | GI50 (NCI-H460): 67.5 µM (inactive) | GI50 (HL-60): 26.5 µM (inactive) | GI50 (OVCAR-5): > 100 µM (inactive)

Reference: ChEMBL document CHEMBL1201862, “PubChem BioAssay data set” (2004)
